From ChEMBL document CHEMBL1201862, “PubChem BioAssay data set” (2004)
Calls of active or inactive are those of the source.

What was measured:
[1] = HeLa 2N DNA content increase, dose response, cell-based, IC50 (AID 1117349); assay type: functional
[2] = half-maximal inhibitory concentration for glucagon-like peptide-1 release, STC-1 cell line, dose-response (AID 1117345); assay type: functional, cell-based
[3] = Glucagon-like peptide 1 release potency, NCI-H716 cell line, dose-response, half-maximal inhibitory concentration (AID 1117344); assay type: functional, cell-based
[4] = cytotoxicity toward Colo320 cells – cell-based, CellTiter-Glo luminescence, IC50, dose response (AID 1117334); assay type: functional; details: COLO 320
[5] = RKO cell viability reduction, dose response, CellTiter-Glo luminescence (AID 1117322); assay type: functional
[6] = HeLa 4N DNA content increase, dose response, cell-based, IC50 (AID 1117351); assay type: functional
[7] = HCT116 cell viability decrease, GSK3B pretreatment – CellTiter-Glo, IC50, dose response (AID 1117339); assay type: functional; details: HCT-116
[8] = cytotoxicity toward HT-29 cells – cell-based, CellTiter-Glo luminescence, IC50, dose response (AID 1117330); assay type: functional
[9] = Concentration-dependent survival of SW480 colon cancer line, luminescence detection with CellTiter-Glo, half-maximal inhibitory concentration (AID 1117338); assay type: functional
[10] = CellTiter-Glo luminescent dose response of DLD-1 viability loss (AID 1117352); assay type: functional
[11] = cytotoxicity toward HCT116 cells – cell-based, CellTiter-Glo luminescence, IC50, dose response (AID 1117332); assay type: functional; details: HCT-116
[12] = SNU-C1 cell viability reduction, dose response, CellTiter-Glo luminescence (AID 1117323); assay type: functional, cell-based
[13] = target: Protein-tyrosine kinase 2-beta (Homo sapiens, UniProt Q14289);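 also: potency of inhibitors of PYK2 kinase phosphorylation of poly-GT substrate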
[14] = target: Voltage-dependent T-type calcium channel subunit alpha-1H (Homo sapiens, UniProt O95180); assay type: functional;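 also: channel activity triggered by adding a high calcium stimulation buffer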
[15] = Luminescence-based cell-based high throughput dose response assay to identify activators of the DAF-12 from the parasite S. stercoralis (ssDAF-12).; assay type: functional
[16] = target: T1, Oxysterols receptor LXR-beta (Homo sapiens, UniProt P55055); test: LXR agonists, Gal4 luciferase reporter, dose response, counter-screen for ssDAF-12 agonist project, cell-based, luminescence, HEK293, S. stercoralis campaign (AID 720737); assay type: functional; details: read-out: IC50 (the source's name)
T1 sequence (P55055 whole entry): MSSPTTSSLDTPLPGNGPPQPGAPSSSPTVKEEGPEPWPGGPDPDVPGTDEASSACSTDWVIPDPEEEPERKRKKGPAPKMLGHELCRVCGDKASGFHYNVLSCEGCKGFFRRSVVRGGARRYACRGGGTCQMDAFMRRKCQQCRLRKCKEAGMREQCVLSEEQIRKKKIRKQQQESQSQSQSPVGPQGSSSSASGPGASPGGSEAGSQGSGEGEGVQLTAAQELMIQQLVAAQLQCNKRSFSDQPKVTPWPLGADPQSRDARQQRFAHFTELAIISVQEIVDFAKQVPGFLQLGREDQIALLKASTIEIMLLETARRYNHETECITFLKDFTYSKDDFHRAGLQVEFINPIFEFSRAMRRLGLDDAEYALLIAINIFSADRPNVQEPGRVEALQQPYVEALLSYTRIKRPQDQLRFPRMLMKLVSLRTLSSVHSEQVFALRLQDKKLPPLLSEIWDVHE

[17] = HEp-2 cell cytotoxicity, dose response, cytotoxicity control for RSV inhibitor project, HTS (AID 2410); assay type: functional; details: human respiratory syncytial virus
Vero [18] = test: cells; assay type: functional; details: Chlorocebus sabaeus
Vero [19] = test: host cell cytotoxicity of antiviral hits, dose response, cytotoxicity control for West Nile virus antiviral project, secondary assay (AID 1650); assay type: functional; details: Chlorocebus sabaeus
[20] = THP-1 cell cytotoxicity, dose response, cytotoxicity control for Vif-APOBEC3G degradation inhibitor project, THP-1 cells (AID 1117359); assay type: functional; details: Human immunodeficiency virus 1, THP-1
[21] = target: Heat shock protein HSP 90-alpha (Homo sapiens, UniProt P07900); test: Luminescence-based dose response biochemical high throughput screening assay for inhibitors of the Heat Shock Protein 90 (HSP90). [Related pubchem assays: 1831 (Summary AID.), 1846 (Confirmation screen.), 1789 (Primary screen.)]
[22] = Luminescence Cell-Based Dose Confirmation to Identify Activators of 5'UTR Stem-Loop Driven Alpha-Synuclein mRNA Translation in H4 Neuroglioblastoma Cells. [Related pubchem assays: 1829 (Project Summary), 1814 (Primary HTS)]; assay type: functional
H4 = test: Luminescence Cell-Based Dose Response HTS to Identify Activators of 5'UTR Stem-Loop Driven Prion Protein mRNA Translation in H4 Neuroglioblastoma Cells. [Related pubchem assays: 1829 (Project Summary), 1814 (Primary HTS)]; assay type: functional; details: Homo sapiens
[23] = Luminescence Cell-Based Dose Confirmation HTS to Identify Activators of 5'UTR Stem-Loop Driven Alpha-Synuclein mRNA Translation in H4 Neuroglioblastoma Cells. [Related pubchem assays: 1829 (Project Summary), 1814 (Primary HTS)]; assay type: functional
[24] = Luminescence Cell-Based Dose Response to Identify Activators of 5'UTR Stem-Loop Driven Prion Protein mRNA Translation in H4-C Neuroglioblastoma Cells. [Related pubchem assays: 1829 (Project Summary), 1814 (Primary HTS)]; assay type: functional
[25] = Luminescence Cell-Based Dose Response HTS to Identify Activators of Luciferase Translation or Activity in H4 […] Cells. [Related pubchem assays: 1829 (Project Summary), 1814 (Primary HTS)]; assay type: functional
[26] = Luminescence Cell-Based Dose Response to Identify Activators of Luciferase Translation or Activity in H4-C Neuroglioblastoma Cells. [Related pubchem assays: 1829 (Project Summary), 1814 (Primary HTS)]; assay type: functional
Genome polyprotein = Genome polyprotein (Hepatitis C virus, UniProt Q2Q167); test: HCV core protein dimerization inhibitors, dose response, biochemical, TR-FRET (AID 2159); set-up: species or system Hepacivirus hominis;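 also: blocks dimerization of HCV core protein measured by TR-FRET between tagged core106 pairs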
Sequence of Genome polyprotein (Q2Q167 whole entry): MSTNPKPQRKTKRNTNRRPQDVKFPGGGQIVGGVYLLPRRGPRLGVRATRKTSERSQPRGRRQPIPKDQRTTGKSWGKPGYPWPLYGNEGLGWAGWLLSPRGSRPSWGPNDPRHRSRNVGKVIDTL

Sequence of Protein-tyrosine kinase 2-beta (Q14289 whole entry): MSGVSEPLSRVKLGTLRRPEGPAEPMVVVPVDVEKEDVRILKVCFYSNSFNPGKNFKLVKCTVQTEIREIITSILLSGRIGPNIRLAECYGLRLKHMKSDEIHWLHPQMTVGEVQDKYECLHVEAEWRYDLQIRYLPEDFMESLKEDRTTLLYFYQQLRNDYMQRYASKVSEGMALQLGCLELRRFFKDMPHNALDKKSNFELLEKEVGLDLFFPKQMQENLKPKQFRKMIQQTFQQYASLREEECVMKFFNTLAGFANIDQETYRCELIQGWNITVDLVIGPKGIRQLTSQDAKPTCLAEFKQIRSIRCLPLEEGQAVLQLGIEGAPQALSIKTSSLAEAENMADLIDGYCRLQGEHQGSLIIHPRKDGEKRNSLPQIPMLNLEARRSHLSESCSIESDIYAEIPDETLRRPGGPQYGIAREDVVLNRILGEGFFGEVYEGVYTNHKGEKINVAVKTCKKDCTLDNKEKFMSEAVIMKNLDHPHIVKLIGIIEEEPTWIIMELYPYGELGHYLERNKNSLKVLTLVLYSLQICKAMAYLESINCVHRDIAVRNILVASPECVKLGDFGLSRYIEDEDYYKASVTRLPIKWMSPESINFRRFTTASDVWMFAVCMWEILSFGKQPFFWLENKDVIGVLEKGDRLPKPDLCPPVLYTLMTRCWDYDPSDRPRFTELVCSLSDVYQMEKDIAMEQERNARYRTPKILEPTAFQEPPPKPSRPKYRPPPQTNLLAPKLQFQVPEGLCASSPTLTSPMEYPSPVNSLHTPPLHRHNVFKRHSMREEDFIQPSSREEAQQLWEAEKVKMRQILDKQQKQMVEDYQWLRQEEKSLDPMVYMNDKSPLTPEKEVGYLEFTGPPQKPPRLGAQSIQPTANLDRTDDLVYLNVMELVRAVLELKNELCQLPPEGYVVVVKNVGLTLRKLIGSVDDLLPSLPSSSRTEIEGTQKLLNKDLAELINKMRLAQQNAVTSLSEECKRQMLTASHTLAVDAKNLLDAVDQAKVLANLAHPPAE
Sequence of Voltage-dependent T-type calcium channel subunit alpha-1H (O95180 whole entry): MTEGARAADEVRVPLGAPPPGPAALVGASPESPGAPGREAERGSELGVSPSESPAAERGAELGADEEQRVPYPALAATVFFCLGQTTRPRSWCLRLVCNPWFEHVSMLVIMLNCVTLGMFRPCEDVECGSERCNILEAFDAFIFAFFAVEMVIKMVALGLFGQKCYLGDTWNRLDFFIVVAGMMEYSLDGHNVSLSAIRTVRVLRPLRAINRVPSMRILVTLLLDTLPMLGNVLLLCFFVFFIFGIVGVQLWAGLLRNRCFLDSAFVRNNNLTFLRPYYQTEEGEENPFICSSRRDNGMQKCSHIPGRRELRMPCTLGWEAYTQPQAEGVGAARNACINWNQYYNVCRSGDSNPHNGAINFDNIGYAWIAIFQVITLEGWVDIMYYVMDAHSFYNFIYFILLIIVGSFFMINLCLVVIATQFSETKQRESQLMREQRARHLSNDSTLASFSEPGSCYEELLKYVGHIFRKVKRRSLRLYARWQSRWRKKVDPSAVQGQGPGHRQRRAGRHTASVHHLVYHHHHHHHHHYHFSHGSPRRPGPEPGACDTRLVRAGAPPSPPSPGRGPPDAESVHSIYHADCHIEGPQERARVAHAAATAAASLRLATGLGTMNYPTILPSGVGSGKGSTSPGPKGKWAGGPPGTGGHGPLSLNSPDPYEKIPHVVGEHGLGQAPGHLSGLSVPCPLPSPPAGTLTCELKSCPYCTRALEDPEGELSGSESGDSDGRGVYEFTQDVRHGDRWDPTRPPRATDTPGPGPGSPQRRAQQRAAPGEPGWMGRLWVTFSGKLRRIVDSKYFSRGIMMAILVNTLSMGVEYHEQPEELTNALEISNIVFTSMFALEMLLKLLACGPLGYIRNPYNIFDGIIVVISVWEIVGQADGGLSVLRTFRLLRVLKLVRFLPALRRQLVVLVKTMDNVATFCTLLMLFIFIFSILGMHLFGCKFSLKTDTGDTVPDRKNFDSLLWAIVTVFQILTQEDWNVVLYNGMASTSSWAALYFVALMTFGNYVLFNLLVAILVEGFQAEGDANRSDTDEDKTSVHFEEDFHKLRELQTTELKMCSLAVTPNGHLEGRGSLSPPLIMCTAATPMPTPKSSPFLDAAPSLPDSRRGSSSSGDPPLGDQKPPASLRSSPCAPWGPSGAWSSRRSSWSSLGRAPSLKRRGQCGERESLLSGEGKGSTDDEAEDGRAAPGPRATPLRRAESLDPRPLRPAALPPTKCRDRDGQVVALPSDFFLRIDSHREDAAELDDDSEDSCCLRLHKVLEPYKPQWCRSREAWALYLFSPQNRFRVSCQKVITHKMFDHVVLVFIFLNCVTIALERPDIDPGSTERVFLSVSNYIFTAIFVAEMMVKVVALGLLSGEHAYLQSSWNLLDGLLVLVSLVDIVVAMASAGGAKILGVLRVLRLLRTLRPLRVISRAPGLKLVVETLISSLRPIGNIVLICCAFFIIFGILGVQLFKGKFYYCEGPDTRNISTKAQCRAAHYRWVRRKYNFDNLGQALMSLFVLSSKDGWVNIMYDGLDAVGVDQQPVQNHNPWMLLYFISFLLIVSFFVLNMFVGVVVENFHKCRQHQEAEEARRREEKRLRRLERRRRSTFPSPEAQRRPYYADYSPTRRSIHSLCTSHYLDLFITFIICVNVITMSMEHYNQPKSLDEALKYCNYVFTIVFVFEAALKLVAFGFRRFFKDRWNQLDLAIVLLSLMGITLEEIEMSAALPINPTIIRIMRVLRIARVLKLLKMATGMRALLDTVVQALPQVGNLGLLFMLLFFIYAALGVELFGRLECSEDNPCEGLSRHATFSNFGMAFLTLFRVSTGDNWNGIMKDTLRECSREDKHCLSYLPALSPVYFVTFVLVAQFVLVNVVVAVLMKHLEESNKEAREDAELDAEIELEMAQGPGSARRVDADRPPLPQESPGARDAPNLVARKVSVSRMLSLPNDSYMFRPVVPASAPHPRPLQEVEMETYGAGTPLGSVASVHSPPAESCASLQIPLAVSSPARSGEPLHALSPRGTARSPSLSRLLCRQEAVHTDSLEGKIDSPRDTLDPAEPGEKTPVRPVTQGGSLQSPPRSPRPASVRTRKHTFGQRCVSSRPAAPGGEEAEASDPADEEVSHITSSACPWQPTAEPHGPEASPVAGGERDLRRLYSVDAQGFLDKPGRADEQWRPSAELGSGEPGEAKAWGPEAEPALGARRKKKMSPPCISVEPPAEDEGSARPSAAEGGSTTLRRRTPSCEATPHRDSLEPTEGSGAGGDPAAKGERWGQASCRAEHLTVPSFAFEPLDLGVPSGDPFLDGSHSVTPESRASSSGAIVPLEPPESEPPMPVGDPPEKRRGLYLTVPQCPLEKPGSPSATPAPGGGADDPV

## Oc1ccc([C@H]2CNCc3c2ccc(O)c3O)cc1O
[1]
  IC50: > 10 µM (inactive)
[2]
  IC50: > 20 µM (inactive)
[3]
  IC50: 5.95 µM (inactive)
[4]
  IC50: 0.466 µM (active)
[5]
  IC50: 0.0332 µM (active)
[6]
  IC50: > 10 µM (inactive)
[7]
  IC50: 0.188 µM (active)
[8]
  IC50: > 20 µM (inactive)
[9]
  IC50: > 20 µM (inactive)
[10]
  IC50: > 20 µM (inactive)
[11]
  IC50: > 20 µM (inactive)
[12]
  IC50: > 20 µM (inactive)

## Cc1oc(-c2ccccc2)cc1C(=O)Nc1cccc2ccccc12
[13]
  IC50: > 69.5 µM (not active)
[14]
  EC50: 18 µM (active)

## COc1ccc(C(=O)c2ccccc2)cc1
[15]
  IC50: > 67.6 µM (inactive)
[16]
  EC50: > 67.6 µM (inactive)

## COc1ccc(C(=O)N/N=C/C23CC[C@@H](O)CC2(O)CC[C@@H]2[C@@H]3CCC3(C)C(C4=CC(=O)OC4)CCC23O)cc1 (stereo partly drawn)
[17]
  CC50: 12.5 µM (active)
Vero [18]
  CC50: 22.1 µM (active)
Vero [19]
  CC50: 43.5 µM (active)
[20]
  CC50: 10.4 µM (active)

## CCOC(=O)c1csc(NC(=O)c2ccc(OCC)cc2)n1
[21]
  IC50: 0.88 µM (active)

## Cc1csc(C(C#N)C(=O)c2cc3ccccc3o2)n1 (stereo not drawn)
[22]
  EC50: 0.926 µM (active)
H4
  EC50: 3.63 µM (active)
[23]
  EC50: < 0.1 µM (active)
[24]
  EC50: 1.46 µM (active)
[25]
  EC50: 0.387 µM (active)
[26]
  EC50: 9.73 µM (active)

## Cc1cc(C(=O)OCC(=O)c2ccc(Cl)c([N+](=O)[O-])c2)c2cccc(C)c2n1
Genome polyprotein
  IC50: > 49.8 µM (not active)
